For 33 compounds, DC50, Dmax and IC50 results are on record in patent US20250049798A1, “WEE1 PROTEIN KINASE DEGRADATION AGENT AND USE THEREOF” (HANGZHOU GLUBIO PHARMACEUTICAL CO. LTD., priority 2021, published 2025).

One test has as its target HiBiT tagged Wee1 (Homo sapiens, UniProt P30291). Nature of the test: Wee1 protein degradation assay (HiBiT assay). The format is cell-based. To be noted: for Dmax: maximum percentage of Wee1 degradation, read-out: HiBiT Wee1: Dmax. For orientation: The HiBiT peptide binds its large partner to form an active luciferase.
The subject of the next test is NCI-H1048 cells. Put plainly: NCI-H1048 cell proliferation assay (CTG assay). The format is cell-based. To be noted: Homo sapiens, 120 hours, read-out: CTG cellular assay_H1048: IC50. The protocol:
NCI-H1048 Cell Proliferation Assay (CTG Assay) The following is an example of an assay that can be used to determine the anti-proliferative activity of Wee1 PROTACs in a small cell lung cancer cell line, NCI-H1048 (ATCC Cat #CRL-5853). This cell line was cultured in RPMI-1640 medium supplemented with 10% FBS. About 1,200 NCI-H1048 cells in 50 μL of culture medium were seeded into a 384-well plate (Cat #3764, Corning), pre-spotted with compounds using the Echo 650 liquid handler (Beckman). The dose-response-curve (DRC) typically has 10-points with a highest concentration at 10 μM, and half-log diluted to as low as 0.316 nM, plus a DMSO control. Assay plates were incubated at 37° C. with 5% CO2 for 120 hours. After that, 20 μL of the CellTiter-Glo (CTG) Luminescent Cell Viability Assay Reagent (Cat #G7573, Promega) was added to each well and incubated at room temperature for 30 minutes. Luminescence was then measured with Pherastar microplate reader (BMG Labtech). All percentage of cell growth inhibition curves were processed using Collaborative Drug Discovery Vault.
Cell viability reads in compound-treated wells were normalized to that of DMSO control and expressed as Percent of Control (PoC, y). A four Parameter Logistic Model was used to determine the compound's EC50 and DC50, using the following equation: […]

The mark [1] stands for this setting: engineered HT-1080 cells, 20 hours.

Structures are written as SMILES. Where two headings read alike, the source gives them in different places. Where only a bound is given, the exact number is not on record here.

Chain of HiBiT tagged Wee1 (P30291 whole entry): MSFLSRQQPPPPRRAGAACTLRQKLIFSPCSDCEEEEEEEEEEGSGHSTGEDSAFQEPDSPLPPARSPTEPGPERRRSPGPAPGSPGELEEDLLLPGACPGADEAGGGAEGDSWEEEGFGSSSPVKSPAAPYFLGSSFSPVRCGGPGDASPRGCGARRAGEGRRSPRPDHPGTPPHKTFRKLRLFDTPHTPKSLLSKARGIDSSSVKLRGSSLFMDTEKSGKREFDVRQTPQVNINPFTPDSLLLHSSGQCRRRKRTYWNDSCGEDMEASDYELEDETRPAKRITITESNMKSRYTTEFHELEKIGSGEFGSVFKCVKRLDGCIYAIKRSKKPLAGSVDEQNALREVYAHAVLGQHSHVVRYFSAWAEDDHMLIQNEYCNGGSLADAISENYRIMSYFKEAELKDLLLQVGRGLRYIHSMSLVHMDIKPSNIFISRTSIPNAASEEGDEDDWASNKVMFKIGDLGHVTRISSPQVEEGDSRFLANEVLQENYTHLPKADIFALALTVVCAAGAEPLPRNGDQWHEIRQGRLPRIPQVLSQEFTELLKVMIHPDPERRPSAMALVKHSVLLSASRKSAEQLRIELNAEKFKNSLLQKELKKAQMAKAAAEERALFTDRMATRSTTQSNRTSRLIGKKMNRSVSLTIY

Turning to `C=CCn1c(=O)c2cnc(Nc3ccc(N4CCC(CN5CCN(c6ccc(NC7CCC(=O)NC7=O)cc6F)CC5)CC4)cc3)nc2n1-c1cccc(C(C)(C)O)n1` (single isomer, unassigned) [Compound 100-A], on HiBiT tagged Wee1 (setting [1]), the DC50 (as a rule, the concentration at which degradation of the target reaches its halfway point) was less than 100 nM and the Dmax (as a rule, the largest share of the target that was removed) is greater than 75%. Further, the 50% inhibitory concentration (IC50) (commonly the concentration that gives 50% inhibition) with NCI-H1048 cells is no more than 25 nM.
`C=CCn1c(=O)c2cnc(Nc3ccc(N4CCC(CN5CCC(c6ccc(NC7CCC(=O)NC7=O)cc6F)CC5)CC4)cc3)nc2n1-c1cccc(C(C)(C)O)n1` (stereo not drawn) [Compound 81]: at HiBiT tagged Wee1 (setting [1]), the DC50 was less than 100 nM and the Dmax was greater than 75%. The IC50 with NCI-H1048 cells is no more than 25 nM.
For `C=CCn1c(=O)c2cnc(Nc3ccc(N4CCN(CC5CCN(c6ccc7c(C8CCC(=O)NC8=O)nn(C)c7c6)CC5)CC4)cc3)nc2n1-c1cccc(C(C)(C)O)n1` (stereo not drawn) [Compound 76], on HiBiT tagged Wee1 (setting [1]), the DC50 is less than 100 nM and the Dmax was 50 to 75%. For the same compound, in the test with NCI-H1048 cells, the IC50 was no more than 25 nM.
As for `C=CCn1c(=O)c2cnc(Nc3ccc(C4CCN(CC5CCN(Cc6ccc7c(c6)n(C)c(=O)n7C6CCC(=O)NC6=O)CC5)CC4)cc3)nc2n1-c1cccc(C(C)(C)O)n1` (stereo not drawn) [Compound 79], at HiBiT tagged Wee1 (setting [1]), the DC50 was less than 100 nM and the Dmax was in the range of 50 to 75%. Moreover, the IC50 with NCI-H1048 cells is no more than 25 nM.
Regarding `C=CCn1c(=O)c2cnc(Nc3ccc(N4CCN(CC5(F)CCN(c6ccc(NC7CCC(=O)NC7=O)cc6F)CC5)CC4)cc3)nc2n1-c1ccc2c(n1)[C@@](O)(CC)CC2` (stereo partly drawn) [Compound 166], at HiBiT tagged Wee1 (setting [1]), the DC50 is less than 100 nM and the Dmax was greater than 75%. In the test on NCI-H1048 cells, the IC50 was in the range of 25 to 100 nM.
On the same counts, the results for `CC(C)n1c(=O)c2cnc(Nc3ccc(N4CCN(CC5CCN(c6ccc(NC7CCC(=O)NC7=O)cc6F)CC5)CC4)cc3)nc2n1-c1cccc(C(C)(C)F)n1` (stereo not drawn) [Compound 199] are less than 100 nM, greater than 75% and 25 to 100 nM.
In the case of `Cc1cc(Nc2ncc3c(n2)N(C)CN(c2c(Cl)cccc2Cl)C3=O)ccc1C1CCN(CC2CCN(c3cccc4c3C(=O)N(C3CCC(=O)NC3=O)C4=O)CC2)CC1` (stereo not drawn) [Compound 19], at HiBiT tagged Wee1 (setting [1]), the DC50 was greater than 1000 nM and the Dmax is less than 50%.
For `C=CCn1c(=O)c2cnc(Nc3ccc4c(c3)CN(CCCNc3ccc5c(c3)C(=O)N(C3CCC(=O)NC3=O)C5=O)CC4)nc2n1-c1cccc(C(C)(C)O)n1` (stereo not drawn) [Compound 23], on HiBiT tagged Wee1 (setting [1]), the DC50 was greater than 1000 nM and the Dmax was less than 50%.
`C=CCn1c(=O)c2cnc(Nc3ccc(N4CCN(C5CC6(CCN(c7ccc(NC8CCC(=O)NC8=O)cc7F)CC6)C5)CC4)cc3)nc2n1-c1ccc2c(n1)[C@@](O)(CC)CC2` (stereo partly drawn) [Compound 165]: on HiBiT tagged Wee1 (setting [1]), the DC50 is less than 100 nM and the Dmax was greater than 75%.
`COc1ccc(C(=O)N2CCC(CN3CCC(c4ccc(Nc5ncc6c(=O)n(-c7c(Cl)cccc7Cl)c7nccn7c6n5)cc4)CC3)CC2)cc1N1CCC(=O)NC1=O` [Compound 26]: on HiBiT tagged Wee1 (setting [1]), the DC50 was greater than 1000 nM and the Dmax is less than 50%.
The matching figures for `COc1ccc(C(=O)N2CCC(CCN3CCC(c4ccc(Nc5ncc6c(=O)n(-c7c(Cl)cccc7Cl)c7nccn7c6n5)cc4)CC3)CC2)cc1N1CCC(=O)NC1=O` [Compound 28]: greater than 1000 nM and 50 to 75%.
In the case of `O=C1CCC(N2C(=O)c3ccc(N4CCC(CN5CCc6cc(Nc7ncc8c(=O)n(-c9c(Cl)cccc9Cl)c9nccn9c8n7)ccc6C5)CC4)cc3C2=O)C(=O)N1` (stereo not drawn) [Compound 1], at HiBiT tagged Wee1 (setting [1]), the DC50 is greater than 1000 nM and the Dmax is less than 50%.
For the compound `C=CCn1c(=O)c2cnc(Nc3ccc(N4CCC(CN5CCN(c6ccc7c(N8CCC(=O)NC8=O)nn(C)c7c6)CC5)CC4)cc3)nc2n1-c1ccc2c(n1)[C@@](C)(O)CC2` [Compound 126], at HiBiT tagged Wee1 (setting [1]), the DC50 is less than 100 nM and the Dmax is 50 to 75%.
For the compound `C=CCn1c(=O)c2cnc(Nc3ccc(N4CCN(CC5CCN(c6ccc(NC7CCC(=O)NC7=O)cc6F)CC5)CC4)c(C)c3)nc2n1-c1ccc2c(n1)[C@@](O)(CC)CC2` (stereo partly drawn) [Compound 128], on HiBiT tagged Wee1 (setting [1]), the DC50 is less than 100 nM and the Dmax was greater than 75%.
For `Cc1cc(Nc2ncc3c(n2)N(C)CN(c2c(Cl)cccc2Cl)C3=O)ccc1N1CCC(CN2CCC(c3ccc4c(c3)C(=O)N(C3CCC(=O)NC3=O)C4=O)CC2)CC1` (stereo not drawn) [Compound 33], the Dmax on HiBiT tagged Wee1 (HT-1080, […]) was less than 50%. This compound registered a DC50 on HiBiT tagged Wee1 (setting [1]) greater than 1000 nM.
`C=CCn1c(=O)c2cnc(Nc3ccc(N4CCN(CC5CCN(c6ccc(NC7CCC(=O)NC7=O)cc6F)CC5)CC4)cc3)nc2n1-c1ccc2c(n1)[C@](C)(O)CCC2` (single isomer, unassigned) [Compound 190]: at HiBiT tagged Wee1 (setting [1]), the DC50 was less than 100 nM and the Dmax is greater than 75%.
On the same counts, the results for `C=CCn1c(=O)c2cnc(Nc3ccc(N4CCC(CN5CCN(c6ccc7c(c6)C(=O)N(C6CCC(=O)NC6=O)C7=O)CC5)CC4)cc3)nc2n1-c1cccc(C(C)(C)O)n1` (stereo not drawn) [Compound 56] are less than 100 nM and 50 to 75%.
On to `CN1CN(c2c(Cl)cccc2Cl)C(=O)c2cnc(Nc3ccc4c(c3)CN(CC3CN(c5ccc6c(c5)C(=O)N(C5CCC(=O)NC5=O)C6=O)C3)CC4)nc21` (stereo not drawn) [Compound 20], for which, on HiBiT tagged Wee1 (setting [1]), the DC50 is greater than 1000 nM and the Dmax was less than 50%.
`C=CCn1c(=O)c2cnc(Nc3ccc(N4CCC(CN5CCN(c6ccc(NC7CCC(=O)NC7=O)cc6F)CC5)CC4)c(C)c3)nc2n1-c1ccc2c(n1)[C@@](C)(O)CC2` (stereo partly drawn) [Compound 133]: at HiBiT tagged Wee1 (setting [1]), the DC50 is less than 100 nM and the Dmax was greater than 75%.
On to `C=CCn1c(=O)c2cnc(Nc3ccc(N4CCN(CC5CCN(c6ccc(NC7CCC(=O)NC7=O)cc6F)CC5)[C@H](COC)C4)cc3)nc2n1-c1ccc2c(n1)[C@@](O)(CC)CC2` (stereo partly drawn) [Compound 206], for which, at HiBiT tagged Wee1 (setting [1]), the DC50 is less than 100 nM and the Dmax was greater than 75%.
In the case of `C=CCn1c(=O)c2cnc(Nc3ccc(N4CCC(CN5CCN(c6cc7c(cc6F)c(N6CCC(=O)NC6=O)nn7C)CC5)CC4)cc3)nc2n1-c1ccc2c(n1)[C@@](O)(CC)CC2` [Compound 201], at HiBiT tagged Wee1 (setting [1]), the DC50 is less than 100 nM and the Dmax was greater than 75%.
For `C=CCn1c(=O)c2cnc(Nc3ccc(C4CCN(CC5CCN(c6ccc(C(=O)NC7CCC(=O)NC7=O)nc6)CC5)CC4)cc3)nc2n1-c1cccc(C(C)(C)O)n1` (stereo not drawn) [Compound 35], at HiBiT tagged Wee1 (setting [1]), the DC50 is greater than 1000 nM and the Dmax was less than 50%.
The matching figures for `COc1ccc(C(=O)N2CCC3(CCN(Cc4ccc(Nc5ncc6c(=O)n(-c7c(Cl)cccc7Cl)c7nccn7c6n5)cc4)CC3)CC2)cc1N1CCC(=O)NC1=O` [Compound 59]: greater than 1000 nM and less than 50%.
As for `C=CCn1c(=O)c2cnc(Nc3ccc(N4CCN(CC5CCN(c6ccc(NC7CCC(=O)NC7=O)cc6F)CC5)CC4)cc3)nc2n1-c1ccc2c(n1)[C@@](O)(CC)CCC2` (single isomer, unassigned) [Compound 188], at HiBiT tagged Wee1 (setting [1]), the DC50 was less than 100 nM and the Dmax was greater than 75%.
For the compound `O=C1CCC(N2C(=O)c3ccc(N4CC(CN5CCC(c6ccc(Nc7ncc8c(=O)n(-c9c(Cl)cccc9Cl)c9nccn9c8n7)cc6)CC5)C4)cc3C2=O)C(=O)N1` (stereo not drawn) [Compound 13], at HiBiT tagged Wee1 (setting [1]), the DC50 was less than 100 nM and the Dmax lay in the range of 50 to 75%.
Take `C=CCn1c(=O)c2cnc(Nc3ccc(N4CCN(CCNc5ccc6c(c5)C(=O)N(C5CCC(=O)NC5=O)C6=O)CC4)cc3)nc2n1-c1cccc(C(C)(C)O)n1` (stereo not drawn) [Compound 11]: at HiBiT tagged Wee1 (setting [1]), the DC50 was less than 100 nM and the Dmax was 50 to 75%.
As for `C=CCn1c(=O)c2cnc(Nc3ccc(N4CCN(CC5CCN(c6ccc(NC7CCC(=O)NC7=O)cc6F)CC5)CC4)cc3)nc2n1-c1cccc(OC)n1` (stereo not drawn) [Compound 205], at HiBiT tagged Wee1 (setting [1]), the DC50 was less than 100 nM and the Dmax was greater than 75%.
In the case of `C=CCn1c(=O)c2cnc(Nc3ccc(N4CCC(CN5CCC(c6cccc7c6n(C)c(=O)n7C6CCC(=O)NC6=O)CC5)CC4)cc3)nc2n1-c1ccc2c(n1)[C@](O)(CC)CC2` (stereo partly drawn) [Compound 53], at HiBiT tagged Wee1 (setting [1]), the DC50 is greater than 1000 nM and the Dmax is less than 50%.
On the same counts, the results for `C=CCn1c(=O)c2cnc(Nc3ccc(N4CCC(N5CC6(CN(c7ccc8c(N9CCC(=O)NC9=O)nn(C)c8c7)C6)C5)C(F)(F)C4)cc3)nc2n1-c1ccc2c(n1)[C@@](O)(CC)CC2` (stereo partly drawn) [Compound 178] are less than 100 nM and 50 to 75%.
For `C=CCn1c(=O)c2cnc(Nc3ccc(N4CCN(CC5CCN(c6ccc(NC7CCC(=O)NC7=O)cc6F)CC5)CC4)c(C)c3)nc2n1-c1ccc2c(n1)[C@](C)(O)CC2` (stereo partly drawn) [Compound 130], on HiBiT tagged Wee1 (setting [1]), the DC50 is less than 100 nM and the Dmax was greater than 75%.
As to `C=CCn1c(=O)c2cnc(Nc3ccc(N4CCN(CC5CCN(c6ccc(NC7CCC(=O)NC7=O)cc6F)CC5)CC4)c(Cl)c3)nc2n1-c1ccc2c(n1)[C@@](O)(CC)CC2` (stereo partly drawn) [Compound 167], at HiBiT tagged Wee1 (setting [1]), the DC50 is less than 100 nM and the Dmax was greater than 75%.
On to `C=CCn1c(=O)c2cnc(Nc3ccc(N4CCC(N5CC[C@@H](c6ccc(NC7CCC(=O)NC7=O)cc6F)C(F)(F)C5)CC4)cc3)nc2n1-c1ccc2c(n1)[C@@](O)(CC)CC2` (single isomer, unassigned) [Compound 184], for which, at HiBiT tagged Wee1 (setting [1]), the DC50 is less than 100 nM and the Dmax was greater than 75%.
Consider `COc1ccc(C(=O)N2CCC(CN3CCN(Cc4ccc(Nc5ncc6c(=O)n(-c7c(Cl)cccc7Cl)c7nccn7c6n5)cc4)CC3)CC2)cc1N1CCC(=O)NC1=O` [Compound 58], for which, at HiBiT tagged Wee1 (setting [1]), the DC50 is greater than 1000 nM and the Dmax is less than 50%.
